Values of other authors in paper PMC9516332 (Frontiers in Oncology, 2022).

Experiments:
[1] = molecular target: T1, panel of 255 wild-type kinases (Homo sapiens, UniProt P29323); settings: kinase EPHB2; 1 µmol/L single concentration; ref DOI: 10.1371/journal.pone.0092146; cited from earlier work
T1 sequence (P29323 19-1055): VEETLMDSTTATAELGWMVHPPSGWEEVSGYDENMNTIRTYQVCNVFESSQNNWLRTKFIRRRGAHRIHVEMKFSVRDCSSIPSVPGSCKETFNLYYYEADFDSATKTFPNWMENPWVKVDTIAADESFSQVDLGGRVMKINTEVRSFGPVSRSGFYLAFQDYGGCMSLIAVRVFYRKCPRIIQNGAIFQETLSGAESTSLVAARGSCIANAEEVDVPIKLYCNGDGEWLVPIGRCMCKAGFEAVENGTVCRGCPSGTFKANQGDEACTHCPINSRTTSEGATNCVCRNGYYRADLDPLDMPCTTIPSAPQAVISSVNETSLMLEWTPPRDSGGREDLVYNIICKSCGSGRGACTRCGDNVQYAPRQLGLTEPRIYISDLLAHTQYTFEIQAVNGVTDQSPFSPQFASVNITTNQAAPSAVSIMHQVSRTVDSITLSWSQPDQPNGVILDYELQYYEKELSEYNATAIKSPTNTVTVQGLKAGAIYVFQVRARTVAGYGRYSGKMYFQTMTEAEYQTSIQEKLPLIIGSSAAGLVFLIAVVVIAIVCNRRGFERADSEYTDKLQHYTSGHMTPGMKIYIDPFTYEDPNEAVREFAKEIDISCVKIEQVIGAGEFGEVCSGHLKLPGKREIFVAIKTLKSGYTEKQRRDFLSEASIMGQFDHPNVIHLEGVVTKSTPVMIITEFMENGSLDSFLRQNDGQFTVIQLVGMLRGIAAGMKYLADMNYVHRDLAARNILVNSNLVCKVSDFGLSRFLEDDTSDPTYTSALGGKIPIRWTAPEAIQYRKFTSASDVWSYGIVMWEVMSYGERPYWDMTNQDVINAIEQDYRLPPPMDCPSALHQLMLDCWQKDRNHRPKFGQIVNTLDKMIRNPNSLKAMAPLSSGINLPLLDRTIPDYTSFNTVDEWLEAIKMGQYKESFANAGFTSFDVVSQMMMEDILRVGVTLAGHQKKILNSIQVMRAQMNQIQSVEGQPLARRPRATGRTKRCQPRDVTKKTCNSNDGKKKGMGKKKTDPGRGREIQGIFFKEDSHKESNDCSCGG

[2] = molecular target: T2, panel of 255 wild-type kinases (Homo sapiens, UniProt P42681); settings: kinase TXK; 1 µmol/L single concentration; ref DOI: 10.1371/journal.pone.0092146; cited from earlier work
T2 sequence (P42681 1-527): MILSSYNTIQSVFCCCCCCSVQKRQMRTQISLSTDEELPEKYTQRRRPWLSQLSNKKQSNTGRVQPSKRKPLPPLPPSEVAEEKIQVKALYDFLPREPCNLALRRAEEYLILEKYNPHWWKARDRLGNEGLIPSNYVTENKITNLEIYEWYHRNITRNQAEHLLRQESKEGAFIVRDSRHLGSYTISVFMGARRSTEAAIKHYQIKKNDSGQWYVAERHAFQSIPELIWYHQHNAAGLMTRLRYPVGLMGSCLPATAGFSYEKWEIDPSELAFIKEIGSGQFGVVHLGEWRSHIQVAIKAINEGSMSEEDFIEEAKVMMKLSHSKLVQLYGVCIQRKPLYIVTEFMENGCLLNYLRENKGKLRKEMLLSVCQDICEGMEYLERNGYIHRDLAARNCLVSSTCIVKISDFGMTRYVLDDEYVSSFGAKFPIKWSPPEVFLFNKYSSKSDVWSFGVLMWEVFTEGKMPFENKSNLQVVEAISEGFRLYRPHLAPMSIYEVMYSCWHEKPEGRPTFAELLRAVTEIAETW

[3] = molecular target: panel of 255 wild-type kinases (Homo sapiens, UniProt P42685); settings: kinase FRK; 1 µmol/L single concentration; ref DOI: 10.1371/journal.pone.0092146; cited from earlier work
[4] = molecular target: panel of 255 wild-type kinases (Homo sapiens, UniProt P48730); settings: kinase CK1δ; 1 µmol/L single concentration; ref DOI: 10.1371/journal.pone.0092146; cited from earlier work
[5] = molecular target: panel of 255 wild-type kinases (Homo sapiens, UniProt Q9Y5S2); settings: MRCKβ; 1 µmol/L single concentration; ref DOI: 10.1371/journal.pone.0092146; cited from earlier work
[6] = molecular target: T3, panel of 255 wild-type kinases (Homo sapiens, UniProt Q8TF76); settings: kinase Haspin; 1 µmol/L single concentration; ref DOI: 10.1371/journal.pone.0092146; cited from earlier work
T3 sequence (Q8TF76 1-798): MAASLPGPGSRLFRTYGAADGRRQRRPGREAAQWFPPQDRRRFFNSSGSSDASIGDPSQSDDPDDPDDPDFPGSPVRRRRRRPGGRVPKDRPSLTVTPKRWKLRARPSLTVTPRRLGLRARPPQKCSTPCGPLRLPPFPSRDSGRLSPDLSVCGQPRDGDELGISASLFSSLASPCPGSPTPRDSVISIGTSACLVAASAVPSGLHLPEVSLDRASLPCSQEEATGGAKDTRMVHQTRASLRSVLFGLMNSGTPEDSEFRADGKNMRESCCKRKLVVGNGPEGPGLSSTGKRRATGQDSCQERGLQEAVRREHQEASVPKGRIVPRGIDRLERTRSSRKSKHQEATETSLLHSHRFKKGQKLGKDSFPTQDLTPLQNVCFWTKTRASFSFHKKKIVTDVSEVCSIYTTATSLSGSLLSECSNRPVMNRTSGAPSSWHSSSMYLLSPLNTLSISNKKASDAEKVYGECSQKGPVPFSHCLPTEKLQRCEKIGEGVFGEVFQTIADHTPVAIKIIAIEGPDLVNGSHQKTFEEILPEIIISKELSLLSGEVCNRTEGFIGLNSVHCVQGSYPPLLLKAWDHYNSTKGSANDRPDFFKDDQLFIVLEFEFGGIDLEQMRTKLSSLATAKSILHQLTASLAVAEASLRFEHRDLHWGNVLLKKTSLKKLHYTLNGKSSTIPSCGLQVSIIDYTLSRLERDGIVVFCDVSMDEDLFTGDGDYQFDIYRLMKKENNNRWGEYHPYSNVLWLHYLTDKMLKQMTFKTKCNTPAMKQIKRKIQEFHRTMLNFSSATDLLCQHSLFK

[7] = molecular target: panel of 255 wild-type kinases (Homo sapiens, UniProt P54764); settings: kinase EPHA4; 1 µmol/L single concentration; ref DOI: 10.1371/journal.pone.0092146; cited from earlier work

Structure (SMILES)	%-inhibition at 1 µmol/L, EPHB2 [1]	%-inhibition at 1 µmol/L, TXK [2]	%-inhibition at 1 µmol/L, FRK [3]	%-inhibition at 1 µmol/L, CK1δ [4]	%-inhibition, MRCKβ [5]	%-inhibition at 1 µmol/L, Haspin [6]	%-inhibition at 1 µmol/L, EPHA4 [7]
CC(=O)Nc1cccc(-n2c(=O)n(C3CC3)c(=O)c3c(Nc4ccc(I)cc4F)n(C)c(=O)c(C)c32)c1 [trametinib]	-8%	-4.66%	-3%	0.365%	-2.56%	5%	-5.3%
CCCS(=O)(=O)Nc1ccc(F)c(C(=O)c2c[nH]c3ncc(-c4ccc(Cl)cc4)cc23)c1F [vemurafenib]	-2.11%	5%	62%	-3%	-5%	-3%	-2%
